From the supplement of paper PMC11061612

Tests used:
[1] = compound: COc1nnc2ccc(N3CCC(c4ccc(OCCN5CCN(C)C(=O)[C@H]5C)cc4)CC3)nn12 [AZD5153]; conditions: max 1 µM
In short: (§1)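 In 1536-well plates, cancer cell lines in 7.5 μl DMEM/F12 or RPMI with 10% FBS spent 24 hours at 37°C and 5% CO2 and were then dosed for 72 hours with final DMSO typically 0.2%. Viability was read by CellTiter-Glo 2.0 luminescence and scaled between blank-well and DMSO-well means. The single-agent IC50 was fitted from dose responses using a logistic curve in a non-linear mixed effects model, and that logistic curve had two parameters.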

[2] = compound: CN(C)CCCOc1ccc(-c2ccc3ncc4c(c3c2)n(C2CCOCC2)c(=O)n4C)cn1 [AZD0156]; conditions: max 3 µM
In short: as §1

[3] = compound: CC(=O)c1c(C)c2cnc(Nc3ccc(N4CCNCC4)cn3)nc2n(C2CCCC2)c1=O [Palbociclib]; conditions: max 10 µM
In short: as §1

[4] = compound: Cc1c2c(nn1C)CSCc1cc(n(C)n1)CSc1cc(c3ccccc3c1)OCCCc1c(C(=O)O)n(C)c3c-2c(Cl)ccc13 [AZD5991]; conditions: max 1 µM
In short: as §1

[5] = compound: C[C@@H](Nc1cc(F)cc(F)c1)c1cc(C(=O)N(C)C)cc2c(=O)cc(N3CCOCC3)oc12 [AZD8186]; conditions: max 3 µM
In short: as §1

[6] = compound: O=C(c1cc(Cc2n[nH]c(=O)c3ccccc23)ccc1F)N1CCN(C(=O)C2CC2)CC1 [Olaparib]; conditions: max 10 µM
In short: as §1

[7] = compound: Cc1nc(-c2cn3c(n2)-c2ccc(-c4cnn(C(C)(C)C(N)=O)c4)cc2OCC3)n(C(C)C)n1 [Taselisib]; conditions: max 10 µM
In short: as §1

[8] = compound: CC1=C(C(=CC=C1)Cl)NC(=O)C2=CN=C(S2)NC3=CC(=NC(=N3)C)N4CCN(CC4)CCO [Dasatinib]; conditions: max 2 µM
In short: as §1

[9] = compound: C[C@@H](c1ccc2nccn2c1)n1nnc2ncc(-c3cnn(C)c3)nc21 [Savolitinib]; conditions: max 1 µM
In short: as §1

[10] = compound: CC(C)n1c(=O)n(C)c2cnc3cc(F)c(-c4ccc(OCCCN5CCCCC5)nc4)cc3c21 [AZD1390]; conditions: max 0.3 µM
In short: as §1

[11] = compound: C[C@@H]1COCCN1C2=NC(=NC(=C2)C3(CC3)[S@](=N)(=O)C)C4=C5C=CNC5=NC=C4 [AZD6738]; conditions: max 10 µM
In short: as §1

[12] = compound: COc1cc(Nc2ncc3c(n2)-c2ccc(Cl)cc2C(c2c(F)cccc2OC)=NC3)ccc1C(=O)O [Alisertib]; conditions: max 10 µM
In short: as §1

[13] = compound: COc1cccc2c1C(=O)c1c(O)c3c(c(O)c1C2=O)C[C@@](O)(C(=O)CO)C[C@@H]3O[C@H]1C[C@H](N)[C@H](O)[C@H](C)O1 [Doxorubicin]; conditions: max 1 µM
In short: as §1

[14] = compound: C[C@@H](Oc1cc(-c2cnn(C3CCNCC3)c2)cnc1N)c1c(Cl)ccc(F)c1Cl [Crizotinib]; conditions: max 10 µM
In short: as §1

[15] = compound: C1CN(CCC1(C(=O)N[C@@H](CCO)C2=CC=C(C=C2)Cl)N)C3=NC=NC4=C3C=CN4 [Capivasertib]; conditions: max 10 µM
In short: as §1

[16] = compound: NC1(c2ccc(-c3nc4ccn5c(=O)[nH]nc5c4cc3-c3ccccc3)cc2)CCC1 [MK-2206]; conditions: max 10 µM
In short: as §1

[17] = compound: CC1(C)CCC(CN2CCN(c3ccc(C(=O)NS(=O)(=O)c4ccc(NCC5CCOCC5)c([N+](=O)[O-])c4)c(Oc4cnc5[nH]ccc5c4)c3)CC2)=C(c2ccc(Cl)cc2)C1 [Venetoclax]; conditions: max 1 µM
In short: as §1

[18] = compound: Cc1cc2ncnn2cc1Nc1ncc2c(n1)n(C1CCOCC1)c(=O)n2C [AZD7648]; conditions: max 10 µM
In short: as §1

[19] = compound: C=CCn1c(=O)c2cnc(Nc3ccc(N4CCN(C)CC4)cc3)nc2n1-c1cccc(C(C)(C)O)n1 [AZD1775]; conditions: max 3 µM
In short: as §1

[20] = compound: CCN(CCO)CCCOc1ccc2c(Nc3cc(CC(=O)Nc4cccc(F)c4)[nH]n3)ncnc2c1 [AZD2811]; conditions: max 1 µM
In short: as §1

[21] = compound: COc1cc2ncnc(Nc3ccc(F)c(Cl)c3)c2cc1OCCCN1CCOCC1 [Gefitinib]; conditions: max 10 µM
In short: as §1

[22] = compound: CCc1c2c(nc3ccc(O)cc13)-c1cc3c(c(=O)n1C2)COC(=O)[C@]3(O)CC [SN-38]; conditions: max 0.3 µM
In short: as §1

[23] = compound: COc1cccc(OCCCN)c1-c1cc(Nc2cnc(C#N)cn2)n[nH]1 [Prexasertib]; conditions: max 1 µM
In short: as §1

[24] = compound: CC(=O)Nc1cccc(-n2c(=O)n(C3CC3)c(=O)c3c(Nc4ccc(I)cc4F)n(C)c(=O)c(C)c32)c1 [Trametinib]; conditions: max 1 µM
In short: as §1

[25] = compound: CC1=CN2[C@@H](C1)C=NC3=CC(=C(C=C3C2=O)OC)OCCCCCOC4=C(C=C5C(=C4)N=C[C@@H]6CC(=CN6C5=O)C)OC [SG3199]; conditions: max 0.001 µM
In short: as §1

[26] = compound: Cn1cnc2c(F)c(Nc3ccc(Br)cc3Cl)c(C(=O)NOCCO)cc21 [Selumetinib]; conditions: max 10 µM
In short: as §1

[27] = compound: CN(CC[C@H](CSC1=CC=CC=C1)NC2=C(C=C(C=C2)S(=O)(=O)NC(=O)C3=CC=C(C=C3)N4CCC(CC4)[C@H](C5=CC=CC=C5C6=CC=C(C=C6)Cl)O)S(=O)(=O)C(F)(F)F)CCO [AZD4320]; conditions: max 1 µM
In short: as §1

[28] = compound: CS(=O)(=O)CCNCc1ccc(-c2ccc3ncnc(Nc4ccc(OCc5cccc(F)c5)c(Cl)c4)c3c2)o1 [Lapatinib]; conditions: max 10 µM
In short: as §1

Cell Line | IC50, cell viability 72 h [1] [nM] | IC50, cell viability 72 h [2] [nM] | IC50, cell viability 72 h [3] [nM] | IC50, cell viability 72 h [4] [nM] | IC50, cell viability 72 h [5] [nM] | IC50, cell viability 72 h [6] [nM] | IC50, cell viability 72 h [7] [nM] | IC50, cell viability 72 h [8] [nM] | IC50, cell viability 72 h [9] [nM] | IC50, cell viability 72 h [10] [nM] | IC50, cell viability 72 h [11] [nM] | IC50, cell viability 72 h [12] [nM] | IC50, cell viability 72 h [13] [nM] | IC50, cell viability 72 h [14] [nM] | IC50, cell viability 72 h [15] [nM] | IC50, cell viability 72 h [16] [nM] | IC50, cell viability 72 h [17] [nM] | IC50, cell viability 72 h [18] [nM] | IC50, cell viability 72 h [19] [nM] | IC50, cell viability 72 h [20] [nM] | IC50, cell viability 72 h [21] [nM] | IC50, cell viability 72 h [22] [nM] | IC50, cell viability 72 h [23] [nM] | IC50, cell viability 72 h [24] [nM] | IC50, cell viability 72 h [25] [nM] | IC50, cell viability 72 h [26] [nM] | IC50, cell viability 72 h [27] [nM] | IC50, cell viability 72 h [28] [nM]
TE-6 (Esophageal Squamous Cell Carcinoma) | 396 | > 3000 | > 10000 | 940 | > 3000 | > 10000 | 245 | > 2000 | > 1000 | > 300 | 9320 | 6000 | > 1000 | > 10000 | 2840 | 6610 | > 1000 | > 10000 | > 3000 | > 1000 | 1750 | > 300 | 893 | > 1000 | > 1 | > 10000 | > 1000 | 3400
U251 (Low Grade Glioma) | > 1000 | > 3000 | > 10000 | > 1000 | > 3000 | > 10000 | > 10000 | > 2000 | > 1000 | > 300 | > 10000 | > 10000 | > 1000 | > 10000 | > 10000 | > 10000 | > 1000 | > 10000 | > 3000 | > 1000 | > 10000 | 13.1 | 323 | > 1000 | > 1 | > 10000 | > 1000 | > 10000
TC-71 (Ewing's Sarcoma) | 224 | > 3000 | > 10000 | > 1000 | > 3000 | > 10000 | 4200 | > 2000 | > 1000 | > 300 | 2740 | 1030 | 812 | 6700 | > 10000 | > 10000 | > 1000 | > 10000 | 1310 | 114 | > 10000 | 2.21 | 50.4 | > 1000 | > 1 | > 10000 | 278 | > 10000
KM12 (Colorectal Carcinoma) | 287 | > 3000 | 1170 | > 1000 | > 3000 | > 10000 | 7180 | > 2000 | > 1000 | > 300 | 5540 | 1110 | 357 | 271 | 2280 |  | > 1000 | > 10000 | 454 | > 1000 | > 10000 | 90.8 | 66.6 | 35.6 | > 1 | 1300 | > 1000 | > 10000
MFM-223 (Breast Carcinoma) | > 1000 | > 3000 | > 10000 | > 1000 | > 3000 | > 10000 | 1160 | > 2000 | > 1000 | > 300 | 5200 | 633 | > 1000 | > 10000 | 1620 |  | > 1000 | > 10000 | 2300 | > 1000 | > 10000 | > 300 | 59.9 | > 1000 | > 1 | > 10000 | > 1000 | > 10000
MS751 (Cervical Carcinoma) | 200 | > 3000 | > 10000 | 222 | > 3000 | > 10000 | > 10000 | > 2000 | > 1000 | > 300 | > 10000 | 1130 | > 1000 | > 10000 | > 10000 |  | > 1000 | > 10000 | 1620 | > 1000 | > 10000 | 36.8 | > 1000 | > 1000 | > 1 | > 10000 | > 1000 | > 10000
COLO-678 (Colorectal Carcinoma) | > 1000 | > 3000 | > 10000 | > 1000 | > 3000 | > 10000 | > 10000 | > 2000 | > 1000 | > 300 | > 10000 | > 10000 | > 1000 | > 10000 | > 10000 |  | > 1000 | > 10000 | > 3000 | > 1000 | > 10000 | > 300 | > 1000 | 264 | > 1 | 3440 | > 1000 | > 10000
